This passage reports NOEL results from EPA's ToxValDB 9.5.

The test system of the data set is Monkey. To be noted: short-term; duration: 29 days; oral; capsule; M; Cynomolgus; blood: basophils + blood: eosinophils + blood: lymphocytes + blood: monocytes + blood: reticulocytes + blood: segmented neutrophils + blood….

For `O=C([O-])C(F)(F)C(F)(F)C(F)(F)C(F)(F)C(F)(F)C(F)(F)C(F)(F)F.[NH4+]` [Ammonium perfluorooctanoate], the NOEL came to 20 mg/kg-day.
